The record followed here is US20140163026A1, “8-ETHYL-6-(ARYL)PYRIDO[2,3-D]PYRIMIDIN-7(8H)-ONES FOR THE TREATMENT OF NERVOUS SYSTEM DISORDERS AND CANCER” (Afraxis Holdings, Inc., priority 2011, published 2014).

Type in all cases: biochemical
The target in assay [1] is PAK1 (Homo sapiens, UniProt Q13153). Briefly: In vitro PAK inhibition assay (SelectScreen, Ser/Thr 19 peptide). Summed up: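 Kinase reaction ran in 50 mM HEPES pH 7.5, 0.01% BRIJ-35, 10 mM MgCl2, 1 mM EGTA with Ser/Thr 19 peptide for 60 min at room temperature, followed by 60 min protease development. Fluorescence gave percent phosphorylation. Compounds were tested as 10-point, 3-fold titrations in 1% DMSO final.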

The target in assay [2] is PAK2 (PAK65) (Homo sapiens, UniProt Q13177). Kind of assay: In vitro PAK inhibition assay (SelectScreen, Ser/Thr 20 peptide). A digest of the protocol: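 FRET-based peptide cleavage assay: 0.29-6 ng PAK2 and 2 μM Ser/Thr 20 peptide in 50 mM HEPES pH 7.5, 10 mM MgCl2, 1 mM EGTA, 0.01% BRIJ-35, 1% DMSO final. Kinase reaction 60 min at room temperature, then 60 min development; 10-point 3-fold titrations, percent phosphorylation from fluorescence.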

Assay [3] addresses PAK3 (Homo sapiens, UniProt O75914). Described as above. Summed up:
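PAK3 phosphorylation of Ser/Thr 20 peptide in 50 mM HEPES pH 7.5, 0.01% BRIJ-35, 10 mM MgCl2, 1 mM EGTA, 1% DMSO final; 60 min at room temperature, then 60 min development reaction with fluorescence read-out. 10-point 3-fold titrations; percent phosphorylation from 0% and 100% phosphopeptide controls.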

In assay [4] the target is PAK4 (Homo sapiens, UniProt O96013). Described as above. Summed up: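 FRET-based Ser/Thr 20 peptide phosphorylation: 0.1-0.75 ng PAK4, 2 μM peptide in 50 mM HEPES pH 7.5, 10 mM MgCl2, 1 mM EGTA, 0.01% BRIJ-35, 1% DMSO; 60 min at room temperature, then 60 min protease development. 10-point 3-fold titrations; IC50 from sigmoidal fit.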

pIC50: −log10 of the molar value.

Sequence of PAK1 (Q13153 whole entry): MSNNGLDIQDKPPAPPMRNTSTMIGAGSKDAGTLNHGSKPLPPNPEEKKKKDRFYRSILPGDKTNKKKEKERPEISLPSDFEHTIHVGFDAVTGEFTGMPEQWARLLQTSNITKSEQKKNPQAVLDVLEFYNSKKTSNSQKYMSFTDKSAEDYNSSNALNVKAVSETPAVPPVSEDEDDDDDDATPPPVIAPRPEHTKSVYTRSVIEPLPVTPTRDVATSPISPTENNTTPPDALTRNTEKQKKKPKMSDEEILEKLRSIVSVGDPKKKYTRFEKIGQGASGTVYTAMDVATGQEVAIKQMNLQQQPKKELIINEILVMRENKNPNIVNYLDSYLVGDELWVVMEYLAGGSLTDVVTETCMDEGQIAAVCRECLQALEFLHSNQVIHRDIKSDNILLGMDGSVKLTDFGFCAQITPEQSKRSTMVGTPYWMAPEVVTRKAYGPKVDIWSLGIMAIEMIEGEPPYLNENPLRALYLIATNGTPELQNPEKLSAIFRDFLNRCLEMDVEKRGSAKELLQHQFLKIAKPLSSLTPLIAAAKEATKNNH
Sequence of PAK2 (PAK65) (Q13177 whole entry): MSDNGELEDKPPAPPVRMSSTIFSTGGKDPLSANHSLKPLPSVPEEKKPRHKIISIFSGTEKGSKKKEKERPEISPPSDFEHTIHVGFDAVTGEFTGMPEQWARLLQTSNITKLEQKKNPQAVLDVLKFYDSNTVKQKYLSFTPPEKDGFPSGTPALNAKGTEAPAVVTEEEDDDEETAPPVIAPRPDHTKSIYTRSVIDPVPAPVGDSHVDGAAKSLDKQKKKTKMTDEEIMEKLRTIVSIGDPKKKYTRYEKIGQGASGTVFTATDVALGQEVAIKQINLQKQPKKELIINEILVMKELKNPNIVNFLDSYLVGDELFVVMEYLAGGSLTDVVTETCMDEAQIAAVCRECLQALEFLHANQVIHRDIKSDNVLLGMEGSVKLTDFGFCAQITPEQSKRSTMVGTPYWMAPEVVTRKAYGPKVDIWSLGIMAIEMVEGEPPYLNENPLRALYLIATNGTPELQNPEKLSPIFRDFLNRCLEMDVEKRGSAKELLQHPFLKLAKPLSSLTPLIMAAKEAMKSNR
Sequence of PAK3 (O75914 whole entry): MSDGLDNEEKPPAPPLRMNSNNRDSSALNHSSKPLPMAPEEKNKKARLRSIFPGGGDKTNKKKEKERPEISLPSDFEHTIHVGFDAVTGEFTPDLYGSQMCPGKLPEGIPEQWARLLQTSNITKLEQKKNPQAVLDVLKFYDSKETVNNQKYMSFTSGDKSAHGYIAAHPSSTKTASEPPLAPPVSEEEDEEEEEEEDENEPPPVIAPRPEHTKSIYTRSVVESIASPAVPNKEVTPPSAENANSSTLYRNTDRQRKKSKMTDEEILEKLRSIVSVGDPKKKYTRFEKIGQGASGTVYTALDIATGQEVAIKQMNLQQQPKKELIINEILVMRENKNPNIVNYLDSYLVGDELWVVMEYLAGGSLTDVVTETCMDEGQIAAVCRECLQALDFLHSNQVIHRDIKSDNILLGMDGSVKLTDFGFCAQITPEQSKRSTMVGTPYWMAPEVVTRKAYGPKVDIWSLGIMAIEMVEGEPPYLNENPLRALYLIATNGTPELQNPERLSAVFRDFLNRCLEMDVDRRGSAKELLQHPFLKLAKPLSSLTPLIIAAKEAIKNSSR
Sequence of PAK4 (O96013 whole entry): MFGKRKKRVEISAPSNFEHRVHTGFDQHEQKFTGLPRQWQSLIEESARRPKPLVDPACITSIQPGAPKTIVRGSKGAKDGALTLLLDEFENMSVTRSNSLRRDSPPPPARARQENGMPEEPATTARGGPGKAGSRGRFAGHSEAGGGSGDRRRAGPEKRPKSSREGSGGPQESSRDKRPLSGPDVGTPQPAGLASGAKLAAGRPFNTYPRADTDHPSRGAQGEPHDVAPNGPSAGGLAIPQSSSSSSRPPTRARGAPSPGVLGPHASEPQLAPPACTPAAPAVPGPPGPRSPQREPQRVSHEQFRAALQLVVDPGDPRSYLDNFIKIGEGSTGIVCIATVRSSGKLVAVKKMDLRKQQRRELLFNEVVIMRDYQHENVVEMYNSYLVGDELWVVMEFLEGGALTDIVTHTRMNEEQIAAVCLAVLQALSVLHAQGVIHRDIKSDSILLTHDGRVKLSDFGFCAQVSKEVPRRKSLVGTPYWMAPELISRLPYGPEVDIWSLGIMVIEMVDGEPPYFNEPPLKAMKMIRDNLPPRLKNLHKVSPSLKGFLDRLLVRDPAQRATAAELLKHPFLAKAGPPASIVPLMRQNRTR

Consider `CCn1c(=O)c(-c2ccc(-c3ccncc3)cc2Cl)cc2cnc(Nc3ccc(N4CCN(C)CC4)cc3)nc21`, for which the pIC50 (usually −log10 of the IC50, conventionally taken in molar units) was over 7.30 in assay [1], over 7.30 in assay [2], over 7.30 in assay [3] and at most 5.30 in assay [4].
With `CCn1c(=O)c(-c2ccc(-c3cccnc3)cc2Cl)cc2cnc(Nc3ccc(N4CCN(C)CC4)cc3)nc21`, the negative logarithm of the IC50 (pIC50) was over 7.30 in assay [1], over 7.30 in assay [2], over 7.30 in assay [3] and 5.30 to 6.30 in assay [4].
On to `CCn1c(=O)c(-c2ccc(-c3ccoc3)cc2Cl)cc2cnc(Nc3ccc(N4CCN(C)CC4)cc3)nc21`, for which the negative logarithm of the IC50 (pIC50) in assay [1] was over 7.30; in assay [2] it was over 7.30; in assay [3] it was over 7.30; in assay [4], at most 5.30.
For the compound `CCn1c(=O)c(-c2ccc(-c3ccco3)cc2Cl)cc2cnc(Nc3ccc(N4CCN(C)CC4)cc3)nc21`, the pIC50 in assay [1] was over 7.30; in assay [2], over 7.30; in assay [3], over 7.30; in assay [4] it was at most 5.30.
As for `CCn1c(=O)c(-c2ccc(-c3ccnc(C(=O)NC)c3)cc2Cl)cc2cnc(Nc3ccc(CCN(C)C)cc3)nc21`, the pIC50 in assay [1] is 6.30 to 7.30; in assay [2], 6.30 to 7.30; in assay [3], 6.30 to 7.30; in assay [4] it was at most 5.30.
Take `CCn1c(=O)c(-c2ccc(-c3noc(C)n3)cc2Cl)cc2cnc(Nc3ccc(C4=CCNCC4)cc3)nc21`: the pIC50 in assay [1] is over 7.30; in assay [2], over 7.30; in assay [3], over 7.30; in assay [4] it was 5.30 to 6.30.
For `CCN1CCC(c2ccc(Nc3ncc4cc(-c5ccc(-c6ccnc(C(=O)NC)c6)cc5Cl)c(=O)n(CC)c4n3)cc2)CC1`, the negative-log IC50 (pIC50) in assay [1] was 6.30 to 7.30; in assay [2], 6.30 to 7.30; in assay [3] it was 6.30 to 7.30; in assay [4], 5.30 to 6.30.
For the compound `CCn1c(=O)c(-c2ccc(-c3noc(C)n3)cc2Cl)cc2cnc(Nc3ccc(C4=CCN(C)CC4)cc3)nc21`, the pIC50 in assay [1] is over 7.30; in assay [2], over 7.30; in assay [3], over 7.30; in assay [4], 5.30 to 6.30.
With `CCn1c(=O)c(-c2ccc(-c3ccnc(C(=O)NC)c3)cc2Cl)cc2cnc(Nc3ccc(C4CCNCC4)c(F)c3)nc21`, the pIC50 was 6.30 to 7.30 in assay [1], 6.30 to 7.30 in assay [2], under 5.30 in assay [3] and at most 5.30 in assay [4].
Consider `CCn1c(=O)c(-c2ccc(-c3ccc(C)nc3F)cc2Cl)cc2cnc(Nc3ccc(C4CCNCC4)cc3)nc21`, for which the pIC50 is over 7.30 in assay [1], over 7.30 in assay [2], 6.30 to 7.30 in assay [3] and 5.30 to 6.30 in assay [4].
As to `CCn1c(=O)c(-c2ccc(-c3cccnc3C)cc2Cl)cc2cnc(Nc3ccc(C4CCN5CCCC5C4)cc3)nc21` (stereo not shown), the negative logarithm of the IC50 (pIC50) in assay [1] was over 7.30; in assay [2], 6.30 to 7.30; in assay [3], 6.30 to 7.30; in assay [4], at most 5.30.
As to `CCn1c(=O)c(-c2ccc(-c3ccc(C)nc3F)cc2Cl)cc2cnc(Nc3ccc(C4CCN(C(C)C)CC4)cc3)nc21`, the negative-log IC50 (pIC50) in assay [1] was 6.30 to 7.30; in assay [2] it was over 7.30; in assay [3], 6.30 to 7.30; in assay [4], 5.30 to 6.30.
For `CCn1c(=O)c(-c2ccc(-c3cccnc3C)cc2Cl)cc2cnc(Nc3ccc(C4CCN(C(C)C)CC4)cc3)nc21`, the negative logarithm of the IC50 (pIC50) in assay [1] was over 7.30; in assay [2], 6.30 to 7.30; in assay [3], 6.30 to 7.30; in assay [4] it was at most 5.30.
As for `CCN1CCC(c2ccc(Nc3ncc4cc(-c5ccc(-c6ccc(C)nc6F)cc5Cl)c(=O)n(CC)c4n3)cc2)CC1`, the pIC50 in assay [1] is 6.30 to 7.30; in assay [2], 6.30 to 7.30; in assay [3], 6.30 to 7.30; in assay [4], 5.30 to 6.30.
As to `CCn1c(=O)c(-c2ccc(-c3ccc(C)nc3)cc2Cl)cc2cnc(Nc3ccc(CCN(C)C)cc3)nc21`, the pIC50 in assay [1] was over 7.30; in assay [2] it was over 7.30; in assay [3] it was 6.30 to 7.30; in assay [4], 5.30 to 6.30.
For the compound `CCn1c(=O)c(-c2ccc(-c3ccc(C)nc3F)cc2Cl)cc2cnc(Nc3ccc(CCN(C)C)cc3)nc21`, the pIC50 in assay [1] is over 7.30; in assay [2], over 7.30; in assay [3], over 7.30; in assay [4], 5.30 to 6.30.
For the compound `CCn1c(=O)c(-c2ccc(-c3cccnc3F)cc2Cl)cc2cnc(Nc3ccc(C4CCN(C(C)C)CC4)cc3)nc21`, the pIC50 is over 7.30 in assay [1], over 7.30 in assay [2], over 7.30 in assay [3] and 5.30 to 6.30 in assay [4].
Consider `CCn1c(=O)c(-c2ccc(-c3cccnc3C)cc2Cl)cc2cnc(Nc3ccc(CCN(C)C)cc3)nc21`, for which the negative-log IC50 (pIC50) in assay [1] was over 7.30; in assay [2], over 7.30; in assay [3], 6.30 to 7.30; in assay [4], at most 5.30.
On to `CCn1c(=O)c(-c2ccc(-c3cccnc3F)cc2Cl)cc2cnc(Nc3ccc(CCN(C)C)cc3)nc21`, for which the negative logarithm of the IC50 (pIC50) in assay [1] is over 7.30; in assay [2], over 7.30; in assay [3], over 7.30; in assay [4], 6.30 to 7.30.
As for `CCN1CCC(c2ccc(Nc3ncc4cc(-c5ccc(-c6ccc(F)nc6C)cc5Cl)c(=O)n(CC)c4n3)cc2)CC1`, the pIC50 in assay [1] is over 7.30; in assay [2], 6.30 to 7.30; in assay [3], 6.30 to 7.30; in assay [4] it was at most 5.30.
`CCN1CCC(c2ccc(Nc3ncc4cc(-c5ccc(-c6cccnc6F)cc5Cl)c(=O)n(CC)c4n3)cc2)CC1`: the negative-log IC50 (pIC50) in assay [1] is over 7.30; in assay [2] it was over 7.30; in assay [3], over 7.30; in assay [4], 6.30 to 7.30.
As to `CCn1c(=O)c(-c2ccc(-c3ccc(F)nc3C)cc2Cl)cc2cnc(Nc3ccc(C4CCNCC4)cc3)nc21`, the negative-log IC50 (pIC50) in assay [1] is over 7.30; in assay [2] it was 6.30 to 7.30; in assay [3], 6.30 to 7.30; in assay [4], at most 5.30.
For the compound `CCn1c(=O)c(-c2ccc(-c3ccc(C)nc3F)cc2Cl)cc2cnc(Nc3ccc(C4CCNCC4)c(F)c3)nc21`, the pIC50 is 6.30 to 7.30 in assay [1], 6.30 to 7.30 in assay [2], 6.30 to 7.30 in assay [3] and 5.30 to 6.30 in assay [4].
As to `CCn1c(=O)c(-c2ccc(-c3cccnc3F)cc2Cl)cc2cnc(Nc3ccc(C4CCNCC4)c(F)c3)nc21`, the pIC50 in assay [1] is over 7.30; in assay [2] it was over 7.30; in assay [3], over 7.30; in assay [4] it was 5.30 to 6.30.
In the case of `CCn1c(=O)c(-c2ccc(-c3ccc(C)nc3F)cc2Cl)cc2cnc(Nc3ccc(C4CCN(C)CC4)cc3)nc21`, the negative-log IC50 (pIC50) is over 7.30 in assay [1], over 7.30 in assay [2], 6.30 to 7.30 in assay [3] and 5.30 to 6.30 in assay [4].
For the compound `CCn1c(=O)c(-c2ccc(-c3ccc(C)nc3)cc2Cl)cc2cnc(Nc3ccc(C4CCN(C)CC4)c(F)c3)nc21`, the pIC50 in assay [1] was over 7.30; in assay [2], over 7.30; in assay [3], 6.30 to 7.30; in assay [4], at most 5.30.
For the compound `CCn1c(=O)c(-c2ccc(-c3cccnc3F)cc2Cl)cc2cnc(Nc3ccc(C4CCN(C)CC4)c(F)c3)nc21`, the negative-log IC50 (pIC50) is over 7.30 in assay [1], over 7.30 in assay [2], over 7.30 in assay [3] and 5.30 to 6.30 in assay [4].
For `CCn1c(=O)c(-c2ccc(-c3cccnc3C)cc2Cl)cc2cnc(Nc3ccc(C4CCN(C)CC4)c(F)c3)nc21`, the negative logarithm of the IC50 (pIC50) is over 7.30 in assay [1], 6.30 to 7.30 in assay [2], 6.30 to 7.30 in assay [3] and at most 5.30 in assay [4].
For the compound `CCN1CCC(c2ccc(Nc3ncc4cc(-c5ccc(-c6ccc(C)nc6)cc5Cl)c(=O)n(CC)c4n3)cc2F)CC1`, the negative-log IC50 (pIC50) in assay [1] is over 7.30; in assay [2], over 7.30; in assay [3], 6.30 to 7.30; in assay [4], 5.30 to 6.30.
`CCN1CCC(c2ccc(Nc3ncc4cc(-c5ccc(-c6cccnc6C)cc5Cl)c(=O)n(CC)c4n3)cc2F)CC1`: the negative-log IC50 (pIC50) in assay [1] is over 7.30; in assay [2] it was 6.30 to 7.30; in assay [3], 6.30 to 7.30; in assay [4], at most 5.30.
On to `CCn1c(=O)c(-c2ccc(-c3ccc(F)nc3C)cc2Cl)cc2cnc(Nc3ccc(C4CCN(C)CC4)cc3)nc21`, for which the pIC50 was over 7.30 in assay [1], 6.30 to 7.30 in assay [2], 6.30 to 7.30 in assay [3] and at most 5.30 in assay [4].
As to `CCN1CCC(c2ccc(Nc3ncc4cc(-c5ccc(-c6cccnc6F)cc5Cl)c(=O)n(CC)c4n3)cc2F)CC1`, the pIC50 in assay [1] is over 7.30; in assay [2] it was over 7.30; in assay [3] it was over 7.30; in assay [4], 5.30 to 6.30.
Consider `CCN1CCC(c2ccc(Nc3ncc4cc(-c5ccc(-c6noc(C)n6)cc5Cl)c(=O)n(CC)c4n3)cc2F)CC1`, for which the negative-log IC50 (pIC50) in assay [1] is over 7.30; in assay [2], over 7.30; in assay [3], over 7.30; in assay [4] it was at most 5.30.
As for `CCN1CCC(c2ccc(Nc3ncc4cc(-c5ccc(-c6ccc(C)nc6F)cc5Cl)c(=O)n(CC)c4n3)cc2F)CC1`, the pIC50 in assay [1] is 6.30 to 7.30; in assay [2] it was 6.30 to 7.30; in assay [3], 6.30 to 7.30; in assay [4], at most 5.30.
